Columns and labels:
[1] = cited from earlier work
[2] = Stability testing of oily lufenuron or hexaflumuron formulations; format: physicochemical; conditions: in organic solvents/media
Excerpt: WO99/063824 discloses the use of hexaflumuron and lufenuron, both members of the chemical class of benzoylureas, in the control of sea lice infestations on fish. Hexaflumurone is applied to the fish orally, via bath treatment or via injection, lufenuron is proposed exclusively for injection. Oily injectable formulations of the two active ingredients, in particular those comprising, in addition, a vaccine against furunculosis, show activity against sea lice for 128 days or in case of hexaflumuron even longer. […] The resulting low shelf life make them unsuited for commercial use. […] In addition, as both hexaflumuron and lufenuron have a strong tendency to aggregate and form sediments in an aqueous environment, the handling of water-based injectables is difficult and cumbersome. So it is not surprising that no commercial lufenuron or hexaflumuron sea lice product has made it to the market until now.

[3] = tested on: sea lice; conditions: cited from earlier work; for duration of activity against sea lice: oily injectable formulations, in particular with a vaccine against furunculosis (WO99/063824)
[4] = tested on: L. salmonis; assay: In vivo test in Atlantic salmon, natural sea lice infestation, pre-adult and adult count; conditions: nanosuspension injected
Experimental: Three groups of 150 salmon (Atlantic Salmon, S. salar) of an average weight 200 g were injected with an amount of the above nanosuspension (a) equivalent to 25 mg (cage 1), 50 mg (cage 2) or 75 mg lufenuron per kg salmon (cage 3). A fourth cage containing 150 salmon of average weight 200 g was added to the study as a non-treated control group.
After treatment, the fish were exposed to natural sea lice infestation for a period of 8 months. During the study the water temperature varied between 4 and 12° C. Sea louse numbers were assessed on a monthly basis until month 8. Counts were conducted on 10 fish at each sampling occasion. The numbers of pre-adults and adult L. salmonis were recorded for each fish. Efficacy was calculated using the formula:
% Efficacy=100−(100×mean of treatment group/mean of control).

## O=C(NC(=O)c1c(F)cccc1F)Nc1cc(Cl)c(OC(F)(F)C(F)F)c(Cl)c1 [hexaflumuron, 1-[3,5-dichloro-4-(1,1,2,2-tetrafluoroethoxyl)phenyl]-3-(2,6-difluorobenzoyl)urea]
[1]
  water-solubility: ≤ 0.027 µg/mL
[2]
  chemical stability of the active ingredient: chemically instable
[3]; hexaflumuron containing aqueous suspension (WO99/063824)
  performance in vivo against sea lice: poor performance
[3]
  duration of activity against sea lice: > 128 days

## O=C(NC(=O)c1c(F)cccc1F)Nc1cc(Cl)c(OC(F)(F)C(F)C(F)(F)F)cc1Cl (centres unmarked) [lufenuron, N-{[2,5-Dichlor-4-(1,1,2,3,3,3-hexafluorpropoxyl)phenyl]carbamoyl}-2,6-difluorbenzamid]
[4]; 25 mg/kg lufenuron, 1 month
  % efficacy pre-adult and adult count: 100%
[4]; 25 mg/kg lufenuron, 2 month
  % efficacy pre-adult and adult count: 95%
[4]; 25 mg/kg lufenuron, 3 month
  % efficacy pre-adult and adult count: 100%
[4]; 25 mg/kg lufenuron, 4 month
  % efficacy pre-adult and adult count: 96%
[4]; 25 mg/kg lufenuron, 5 month
  % efficacy pre-adult and adult count: 100%
[4]; 25 mg/kg lufenuron, 6 month
  % efficacy pre-adult and adult count: 81%
[4]; 25 mg/kg
  duration of complete protection of the fish against sea lice infestation: at least 5 month
[4]; 50 mg/kg fish, until the end of the study
  duration of complete protection of the fish against sea lice infestation: 8 month
[4]; 50 mg/kg lufenuron, 1 month
  % efficacy pre-adult and adult count: 90%
[4]; 50 mg/kg lufenuron, 2 month
  % efficacy pre-adult and adult count: 100%
[4]; 50 mg/kg lufenuron, 3 month
  % efficacy pre-adult and adult count: 100%
[4]; 50 mg/kg lufenuron, 4 month
  % efficacy pre-adult and adult count: 100%
[4]; 50 mg/kg lufenuron, 5 month
  % efficacy pre-adult and adult count: 97%
[4]; 50 mg/kg lufenuron, 6 month
  % efficacy pre-adult and adult count: 96%
[4]; 50 mg/kg lufenuron, 7 month
  % efficacy pre-adult and adult count: 98%
[4]; 50 mg/kg lufenuron, 8 month
  % efficacy pre-adult and adult count: 98%
[4]; 75 mg/kg lufenuron, 1 month
  % efficacy pre-adult and adult count: 100%
[4]; 75 mg/kg lufenuron, 2 month
  % efficacy pre-adult and adult count: 100%
[4]; 75 mg/kg lufenuron, 3 month
  % efficacy pre-adult and adult count: 100%
[4]; 75 mg/kg lufenuron, 4 month
  % efficacy pre-adult and adult count: 96%
[4]; 75 mg/kg lufenuron, 5 month
  % efficacy pre-adult and adult count: 100%
[4]; 75 mg/kg lufenuron, 6 month
  % efficacy pre-adult and adult count: 100%
[4]; 75 mg/kg lufenuron, 7 month
  % efficacy pre-adult and adult count: 98%
[4]; 75 mg/kg lufenuron, 8 month
  % efficacy pre-adult and adult count: 100%
[4]; 75 mg/kg, until the end of the study
  duration of complete protection of the fish against sea lice infestation: 8 month
[1]
  water-solubility: ≤ 0.06 µg/mL
[2]
  chemical stability of the active ingredient: chemically instable
[3]
  duration of activity against sea lice: 128 days

Source: patent US20150238446A1, “NEW TREATMENT OF FISH WITH A NANOSUS PENS ION OF LUFENURON OR HEXAFLUMURON” (Novartis AG, priority 2012, published 2015)
